The source of these data is US20250346605A1, “NEW DERIVATIVES FOR TREATING TRPM3 MEDIATED DISORDERS” (Katholieke Universiteit Leuven, priority 2022, published 2025).

Each structure is given as a SMILES string.

One may read the IC50 as the concentration that inhibits the measured activity by half. Low values mean greater potency, high ones weaker potency.

In this test the target is T1, mouse TRPM3α2 (mTRPM3) ion channel (Mus musculus, UniProt J9SQF3).
T1 construct: expressed in transfected cells; host or cells: Flp-In HEK293
T1 sequence (J9SQF3 1-1709 isoform J9SQF3-12): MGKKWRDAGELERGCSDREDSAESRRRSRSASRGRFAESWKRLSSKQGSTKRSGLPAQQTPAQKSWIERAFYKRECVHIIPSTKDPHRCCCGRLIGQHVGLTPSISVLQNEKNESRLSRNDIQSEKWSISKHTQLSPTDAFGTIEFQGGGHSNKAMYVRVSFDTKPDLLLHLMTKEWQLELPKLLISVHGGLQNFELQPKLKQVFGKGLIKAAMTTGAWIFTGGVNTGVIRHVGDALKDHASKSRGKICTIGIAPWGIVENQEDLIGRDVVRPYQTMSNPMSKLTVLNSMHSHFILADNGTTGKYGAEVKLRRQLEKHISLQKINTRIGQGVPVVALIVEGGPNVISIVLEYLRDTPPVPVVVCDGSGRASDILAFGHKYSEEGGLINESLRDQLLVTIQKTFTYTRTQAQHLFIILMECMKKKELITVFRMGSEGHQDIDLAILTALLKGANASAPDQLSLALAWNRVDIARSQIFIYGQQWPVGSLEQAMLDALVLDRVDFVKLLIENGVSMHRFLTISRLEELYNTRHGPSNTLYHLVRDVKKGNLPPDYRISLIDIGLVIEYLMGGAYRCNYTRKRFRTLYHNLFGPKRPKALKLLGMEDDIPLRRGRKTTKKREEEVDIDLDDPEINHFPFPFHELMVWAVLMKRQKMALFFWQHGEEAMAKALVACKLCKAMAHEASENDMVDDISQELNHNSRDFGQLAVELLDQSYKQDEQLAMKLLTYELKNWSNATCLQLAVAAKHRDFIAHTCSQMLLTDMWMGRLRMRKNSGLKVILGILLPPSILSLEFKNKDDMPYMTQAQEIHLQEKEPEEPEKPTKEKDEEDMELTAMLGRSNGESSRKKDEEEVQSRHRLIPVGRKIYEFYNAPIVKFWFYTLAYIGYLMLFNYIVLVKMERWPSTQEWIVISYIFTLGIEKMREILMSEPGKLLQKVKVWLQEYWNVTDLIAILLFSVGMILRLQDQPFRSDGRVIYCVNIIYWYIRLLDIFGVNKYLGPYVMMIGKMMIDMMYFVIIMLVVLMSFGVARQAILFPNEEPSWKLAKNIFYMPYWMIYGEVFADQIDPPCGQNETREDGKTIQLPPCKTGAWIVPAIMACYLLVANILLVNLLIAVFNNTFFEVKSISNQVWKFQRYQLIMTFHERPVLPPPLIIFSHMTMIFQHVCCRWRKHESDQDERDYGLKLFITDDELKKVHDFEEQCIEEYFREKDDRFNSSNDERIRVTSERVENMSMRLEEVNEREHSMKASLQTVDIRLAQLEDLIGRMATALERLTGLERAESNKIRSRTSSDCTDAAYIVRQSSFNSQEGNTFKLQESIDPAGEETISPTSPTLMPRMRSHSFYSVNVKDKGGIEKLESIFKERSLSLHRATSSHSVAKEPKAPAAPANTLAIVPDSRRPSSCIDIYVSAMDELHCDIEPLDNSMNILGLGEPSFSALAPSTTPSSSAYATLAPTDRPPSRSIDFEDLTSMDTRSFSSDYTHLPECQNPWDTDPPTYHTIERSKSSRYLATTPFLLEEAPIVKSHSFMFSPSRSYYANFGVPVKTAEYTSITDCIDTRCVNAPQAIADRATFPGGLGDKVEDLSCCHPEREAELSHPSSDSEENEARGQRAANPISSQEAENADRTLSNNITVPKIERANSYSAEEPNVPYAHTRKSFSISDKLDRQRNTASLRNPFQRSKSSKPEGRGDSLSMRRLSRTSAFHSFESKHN
The experiment in a line: TRPM3 ion channel driven Ca2+ uptake (Fluo-4 AM assay), PS-stimulated overexpressing HEK293 cells. Format: cell-based. As to conditions: flip-in HEK293 overexpressing TRPM3, stimulated with Pregnenolone sulfate (PS) 50 μM, activity ranges A, B, C. The method, then:
In order to monitor the inhibition of the mouse TRPM3α2 (mTRPM3) ion channel by the compounds of the invention, a cellular system making use of an mTRPM3alpha2 or hTRPM3 overexpressing cell line (flip-in HEK293) was used. The TRPM3 channel was stimulated/opened with Pregnenolone sulfate (PS) (50 μM) which results in Ca^2+ influx.
For mTRPM3, the intracellular Ca^2+ was measured with a Calcium responsive dye, Fluor-4 AMV ester (Invitrogen). Cells were cultured until a confluence of 80-90%, washed with Versene (Invitrogen) and detached from the surface by a short incubation with 0.05% Trypsin (Invitrogen). The trypsination process was stopped by the addition of complete cell culture medium (DMEM, glutamax, 10% FCS, NEAA, Pen-Strep). Cells were collected and resuspended in Krebs buffer without Calcium at RT.
Prior the cell seeding (±2000 cells/well into a black, 384 well plate (Greiner)) the diluted compound was added in the assay plate, together with the PS dissolved in Krebs buffer containing Calcium. […] Directly after cell addition the plates were read on an Envision fluorescence reader (Perkin Elmer) by an Excitation of 485 nm and emission at 535 nm.
Channel inhibition was calculated compared to a non-PS stimulated control versus a condition stimulated with PS (50 μM) with vehicle. The ability of the compounds of the invention to inhibit this activity was determined as: Percentage inhibition=[1-((RFU determined for sample with test compound present−RFU determined for sample with positive control inhibitor) divided by (RFU determined in the presence of vehicle−RFU determined for sample with positive control inhibitor))]*100.
The activities of the Example compounds tested are depicted in the table below. The activity ranges A, B and C refer to IC50 values in the Fluo-4 AM assay as follows: “A”: IC50<1 μM; “B”: 1 μM≤IC50≤20 μM and “C”: IC50>20 μM
`Cc1ncsc1COc1cc2c(C(=O)NC(C)C(N)=O)c(C)oc2cn1` (single isomer, unassigned) [Cpd 005-En1, 2-({2-methyl-5-[(4-methyl-1,3-thiazol-5-yl)methoxy]furo[2,3-c]pyridin-3-yl}formamido)propanamide]: the IC50 was in the range of 1 to 20 µM. For `Cc1oc2cnc(OCc3ccccc3)cc2c1C(=O)NC1(CO)CCOCC1` [Cpd 016, 5-(benzyloxy)-N-[4-(hydroxymethyl)oxan-4-yl]-2-methylfuro[2,3-c]pyridine-3-carboxamide] the value was greater than 20 µM. In turn, `Cc1oc2cnc(OCc3ccccc3F)cc2c1C(=O)NC1CCN(CCO)C1=O` (single isomer, unassigned) [Cpd 017-En1, 5-[(2-fluorophenyl)methoxy]-N-[1-(2-hydroxyethyl)-2-oxopyrrolidin-3-yl]-2-methylfuro[2,3-c]pyridine-3-carboxamide] registered an IC50 of 1 to 20 µM. In the case of `Cc1oc2cnc(OCc3ccccn3)cc2c1C(=O)NC1(CO)CC1` [Cpd 031, N-[1-(hydroxymethyl)cyclopropyl]-2-methyl-5-[(pyridin-2-yl)methoxy]furo[2,3-c]pyridine-3-carboxamide], the IC50 was greater than 20 µM. `COc1ncccc1COc1cc2c(C(=O)NC3(CO)CC3)c(C)oc2cn1` [Cpd 032, N-[1-(hydroxymethyl)cyclopropyl]-5-[(2-methoxypyridin-3-yl)methoxy]-2-methylfuro[2,3-c]pyridine-3-carboxamide] had a concentration for half-maximal inhibition (IC50) greater than 20 µM. As for `Cc1oc2cnc(OCc3ccccn3)cc2c1C(=O)NC1(CO)COC1` [Cpd 034, N-[3-(hydroxymethyl)oxetan-3-yl]-2-methyl-5-[(pyridin-2-yl)methoxy]furo[2,3-c]pyridine-3-carboxamide], the IC50 was greater than 20 µM. In the case of `Cc1oc2cnc(OCc3ccccn3)cc2c1C(=O)NC(C)C(N)=O` (single isomer, unassigned) [Cpd 006 _ En1, 2-({2-methyl-5-[(pyridin-2-yl)methoxy]furo[2,3-c]pyridin-3-yl}formamido)propanamide], the IC50 lay in the range of 1 to 20 µM. On to `Cc1ncsc1COc1cc2c(C(=O)NC(CO)C(N)=O)c(C)oc2cn1` (single isomer, unassigned) [Cpd 013-En2, 3-hydroxy-2-({2-methyl-5-[(4-methyl-1,3-thiazol-5-yl)methoxy]furo[2,3-c]pyridin-3-yl}formamido)propanamide], for which the IC50 is less than 1 µM. `Cc1ncsc1COc1cc2c(C(=O)NC3CNCC3(F)F)c(C)oc2cn1` (single isomer, unassigned) [Cpd 021-En1, N-(4,4-difluoropyrrolidin-3-yl)-2-methyl-5-[(4-methyl-1,3-thiazol-5-yl)methoxy]furo[2,3-c]pyridine-3-carboxamide] yielded an IC50 of less than 1 µM.

For `Cc1ncc(COc2cc3c(C(=O)N[C@@H](CO)C(N)=O)c(C)oc3cn2)s1` [Cpd 001, (2S)-3-hydroxy-2-({2-methyl-5-[(2-methyl-1,3-thiazol-5-yl)methoxy]furo[2,3-c]pyridin-3-yl}formamido)propanamide], the IC50 lay within 1 to 20 µM. As for `Cc1ncsc1COc1cc2c(C(=O)NC3(CO)CCC3)c(C)oc2cn1` [Cpd 028, N-[1-(hydroxymethyl)cyclobutyl]-2-methyl-5-[(4-methyl-1,3-thiazol-5-yl)methoxy]furo[2,3-c]pyridine-3-carboxamide], the IC50 was 1 to 20 µM.

On to `Cc1oc2cnc(OCc3ccccn3)cc2c1C(=O)NC1(C(N)=O)COC1` [Cpd 020, N-(3-carbamoyloxetan-3-yl)-2-methyl-5-[(pyridin-2-yl)methoxy]furo[2,3-c]pyridine-3-carboxamide], for which the IC50 lay within 1 to 20 µM. The molecule `Cc1oc2cnc(OCc3ccccc3F)cc2c1C(=O)NC(C)(C)C(N)=O` [Cpd 007, 2-({5-[(2-fluorophenyl)methoxy]-2-methylfuro[2,3-c]pyridin-3-yl}formamido)-2-methylpropanamide] yielded an IC50 of 1 to 20 µM.

`Cc1oc2cnc(OCc3ccccc3F)cc2c1C(=O)NC(C)C(N)=O` (single isomer, unassigned) [Cpd 009-En1, 2-({5-[(2-fluorophenyl)methoxy]-2-methylfuro[2,3-c]pyridin-3-yl}formamido)propanamide] showed an IC50 of 1 to 20 µM. Molecule `Cc1oc2cnc(OCc3ccccc3F)cc2c1C(=O)N[C@H](C(N)=O)[C@@H](C)O` [Cpd 002, (2S,3R)-2-({5-[(2-fluorophenyl)methoxy]-2-methylfuro[2,3-c]pyridin-3-yl}formamido)-3-hydroxybutanamide] gave an IC50 of less than 1 µM.
